According to paper PMC6830257, “Optimisation of novel 4, 8-disubstituted dihydropyrimido[5,4-b][1,4]oxazine derivatives as potent GPR 119 agonists” (Journal of Enzyme Inhibition and Medicinal Chemistry, 2019):
Where two headings read alike, the source gives them in different places.

Tests used:
mice = test system: mice; design: method as in PMID 30100020, PMID 30685641; conditions: compared with positive control ref 31, 32; cited from earlier work
GPR119 = test system: GPR119; design: method as in PMID 30100020, PMID 30685641; conditions: earlier work of the authors ref 31, 32; read-out: EC50 (GPR119 agonistic potency); cited from earlier work
C57BL/6N mice = assay: oral glucose tolerance test (oGTT), single dose, in C57BL/6N mice; assay type: in vivo; conditions: for blood glucose AUC0–120 min: mean ± SE, n = 8, vehicle 24.69 ± 3.08; for reduction of blood glucose AUC0–120 min: oGTT 3 g/kg glucose 4 h after dose, vs vehicle, C57BL/6N mice; for blood glucose reduction effect: single dose 15 and 30 mg/kg, oGTT in C57BL/6N mice
Procedure: Figure 2. Single dose of compounds 10 and 15 on oGTT in C57BL/6N mice.
AUC0–2h(mmol/L) = (BG0+BG15)×0.25/2 + (BG15+BG30)×0.25/2 + (BG30+BG60)×0.5/2 + (BG60+BG90)×0.5/2 + (BG90+BG120)×0.5/2.

human GPR119 = biological target: T1, human GPR119 (Homo sapiens, UniProt Q8TDV5); assay: hGPR119 agonistic activity, LANCE Ultra cAMP accumulation assay in CHO K1 cells stably expressing human GPR119; assay type: cell-based; conditions: for Emax: CHO-K1, 1 h, read-out: GPR119 activation %max (inherent activity)
T1 construct: expressed in transfected cells; host or cells: CHO K1
T1 sequence (Q8TDV5 1-335): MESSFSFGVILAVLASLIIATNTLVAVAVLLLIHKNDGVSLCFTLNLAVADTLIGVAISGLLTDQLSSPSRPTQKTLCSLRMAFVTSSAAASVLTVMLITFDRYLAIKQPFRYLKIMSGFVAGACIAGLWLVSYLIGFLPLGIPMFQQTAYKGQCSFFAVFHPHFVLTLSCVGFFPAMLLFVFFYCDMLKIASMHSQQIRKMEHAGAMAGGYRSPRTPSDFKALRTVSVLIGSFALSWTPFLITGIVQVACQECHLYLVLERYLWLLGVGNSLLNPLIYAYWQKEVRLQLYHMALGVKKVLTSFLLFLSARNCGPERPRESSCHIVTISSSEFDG
Procedure: CHO K1 cells stably transfected with human GPR119 were grown at 37 °C, […] and 5% CO2 in 75 cm flasks containing DMEM/F12 (1:1) media with added 10% FBS (Gibco®), Geneticin (Gibco®) and grown until 90% confluent. Cells were then washed (PBS), lifted with cell dissociation solution (Invtrogen®), counted and used for cAMP accumulation assays and/or passaging (1:10). Following the manufacturer’s instructions for the LANCE® Ultra cAMP assay (Perkin Elmer), cell transfected with hGPR119 were centrifuged (1000 rpm, 5 min), re-suspended in cAMP assay buffer (HBSS, 0.1% BSA, 0.5 mM IBMX and 5 mM HEPES) and seeded at 5000 cells/well in optiplate-384 (Perkin Elmer). […] Cell lysis buffers (4X Eu-cAMP tracer solution and 4X ULight™-anti-cAMP solution) were added to each well, and the plates were incubated at r. t. for 1 h before being read on Envision (Perkin Elmer). The assay was performed for three replicates for each concentration.

[1] = cAMP stimulation % compared to maximal effect of GSK1292263
[2] = human GPR119 in CHO K1 cells, cAMP, 1 h incubation, read-out: GPR119 activation EC50

| Structure (SMILES) | Emax (human GPR119; [1]) | EC50 (human GPR119; [2]) | GPR119 activation %max (inherent activity) (human GPR119; [1]) | other results |
| --- | --- | --- | --- | --- |
| CC(C)(C)OC(=O)N1[C@@H]2CC[C@H]1C[C@@H](Nc1ncnc3c(Nc4ccc(S(C)(=O)=O)cc4F)ncnc13)C2 [Compound 1] |  |  |  | glucose-lowering effect in oGTT (mice): did not show the significant glucose-lowering effect; EC50 (GPR119): 0.0022 µM |
| CC(C)(C)OC(=O)N1[C@@H]2CC[C@H]1C[C@@H](Nc1ncnc3c(Nc4ccc(C#N)cc4F)ncnc13)C2 [Compound 2] |  |  |  | glucose-lowering effect in oGTT (mice): did not show the significant glucose-lowering effect; EC50 (GPR119): 0.0081 µM |
| CC(C)(C)OC(=O)N1C2CCC1CC(Nc1ncnc3c1OCCN3c1ccc(C#N)cc1F)C2 (stereo not drawn) [Compound 10, tert-Butyl (endo)-3-((8-(4-cyano-2-fluorophenyl)-7,8-dihydro-6H-pyrimido[5,4-b][1,4]oxazin-4-yl)amino)-8-azabicyclo[3.2.1]octane-8-carboxylate] |  |  |  | blood glucose AUC0–120 min (C57BL/6N mice; 15 mg/kg single dose): 22.1 ± 4.28 mmol·h/L; reduction of blood glucose AUC0–120 min (C57BL/6N mice; 15 mg/kg single dose): 10.7%; blood glucose AUC0–120 min (C57BL/6N mice; 30 mg/kg single dose): 20.1 ± 2.27 mmol·h/L; reduction of blood glucose AUC0–120 min (C57BL/6N mice; 30 mg/kg single dose): 18.8%; blood glucose reduction effect (C57BL/6N mice): dose-dependent manner; EC50 (human GPR119): 0.013 µM; Emax (human GPR119): 83.9% |
| CC(C)(C)OC(=O)N1C2CCC1CC(CNc1ncnc3c1OCCN3c1ccc(C#N)cc1F)C2 (stereo not drawn) [Compound 11, tert-Butyl (exo)-3-(((8-(4-cyano-2-fluorophenyl)-7,8-dihydro-6H-pyrimido[5,4-b][1,4]oxazin-4-yl)amino)methyl)-8-azabicyclo[3.2.1]octane-8-carboxylate] | 45.9% | 1.8 µM |  |  |
| CC(C)(C)OC(=O)N1CCC(Nc2ncnc3c2OCCN3c2ccc(C#N)cc2F)CC1 [Compound 12, tert-Butyl 4-((8-(4-cyano-2-fluorophenyl)-7,8-dihydro-6H-pyrimido[5,4-b][1,4]oxazin-4-yl)amino)piperidine-1-carboxylate] | 63.5% | 0.2 µM |  |  |
| CC(C)(C)OC(=O)N1C2CCCC1CC(Nc1ncnc3c1OCCN3c1ccc(C#N)cc1F)C2 (centres unmarked) [Compound 13, tert-Butyl 3-((8-(4-cyano-2-fluorophenyl)-7,8-dihydro-6H-pyrimido[5,4-b][1,4]oxazin-4-yl)amino)-9-azabicyclo[3.3.1]nonane-9-carboxylate] | 22.7% | > 10 µM |  |  |
| CC(C)OC(=O)N1[C@@H]2CC[C@H]1C[C@@H](Nc1ncnc3c1OCCN3c1ccc(C#N)cc1F)C2 [Compound 15, Isopropyl (endo)-3-((8-(4-cyano-2-fluorophenyl)-7,8-dihydro-6H-pyrimido[5,4-b][1,4]oxazin-4-yl)amino)-8-azabicyclo[3.2.1]octane-8-carboxylate] |  | 0.012 µM | 146.3% | blood glucose AUC0–120 min (C57BL/6N mice; 15 mg/kg single dose): 21.1 ± 3.92 mmol·h/L; reduction of blood glucose AUC0–120 min (C57BL/6N mice; 15 mg/kg single dose): 14.5%; blood glucose AUC0–120 min (C57BL/6N mice; 30 mg/kg single dose): 18.9 ± 2.58 mmol·h/L; reduction of blood glucose AUC0–120 min (C57BL/6N mice; 30 mg/kg single dose): 23.4%; blood glucose reduction effect (C57BL/6N mice): dose-dependent manner; EC50 ratio compound 15 vs. compound 22 (human GPR119; carbamate substituted derivatives, 15 vs. 22): 10 times |
| CCc1cnc(N2[C@@H]3CC[C@H]2C[C@@H](Nc2ncnc4c2OCCN4c2ccc(C#N)cc2F)C3)nc1 [Compound 16, 4-(4-(((endo)-8-(5-Ethylpyrimidin-2-yl)-8-azabicyclo[3.2.1]octan-3-yl)amino)-6,7-dihydro-8H-pyrimido[5,4-b][1,4]oxazin-8-yl)-3-fluorobenzonitrile] |  | 0.13 µM | 60.5% |  |
| N#Cc1ccc(N2CCOc3c(N[C@H]4C[C@H]5CC[C@@H](C4)N5c4ncc(Cl)cn4)ncnc32)c(F)c1 [Compound 17, 4-(4-(((endo)-8-(5-Chloropyrimidin-2-yl)-8-azabicyclo[3.2.1]octan-3-yl)amino)-6,7-dihydro-8H-pyrimido[5,4-b][1,4]oxazin-8-yl)-3-fluorobenzonitrile] |  | 0.25 µM | 71.2% |  |
| N#Cc1ccc(N2CCOc3c(NC4CC5CCC(C4)N5CC(=O)N4CCn5c(nnc5C(F)(F)F)C4)ncnc32)c(F)c1 (stereo not drawn) [Compound 18, 3-Fluoro-4-(4-(((endo)-8-(2-oxo-2-(3-(trifluoromethyl)-5,6-dihydro-[1,2,4]triazolo[4,3-a]pyrazin-7(8H)-yl)ethyl)-8-azabicyclo[3.2.1]octan-3-yl)amino)-6,7-dihydro-8H-pyrimido[5,4-b][1,4]oxazin-8-yl)benzonitrile] |  | 0.11 µM | 100% |  |
| CC(C)c1noc(N2CCC(COc3ccc(-c4ccc(S(C)(=O)=O)cc4)nc3)CC2)n1 [GSK-1292263, reference compound] |  |  |  | EC50 (human GPR119): 0.0066 µM |

Continued, in another order:

| Emax (human GPR119; [1]) | EC50 (human GPR119; [2]) | GPR119 activation %max (inherent activity) (human GPR119; [1]) | Structure (SMILES) | other results |
| --- | --- | --- | --- | --- |
|  | 0.068 µM | 75.6% | CC(C)(C)OC(=O)N[C@@H]1CCCN(C(=O)CN2[C@@H]3CC[C@H]2C[C@@H](Nc2ncnc4c2OCCN4c2ccc(C#N)cc2F)C3)C1 [Compound 19, tert-Butyl ((R)-1-(2-((endo)-3-((8-(4-cyano-2-fluorophenyl)-7,8-dihydro-6H-pyrimido[5,4-b][1,4]oxazin-4-yl)amino)-8-azabicyclo[3.2.1]octan-8-yl)acetyl)piperidin-3-yl)carbamate] |  |
|  | 0.082 µM | 79.6% | CC(C)(C)OC(=O)N1CCN(C(=O)CN2[C@@H]3CC[C@H]2C[C@@H](Nc2ncnc4c2OCCN4c2ccc(C#N)cc2F)C3)CC1 [Compound 20, tert-Butyl 4-(2-((endo)-3-((8-(4-cyano-2-fluorophenyl)-7,8-dihydro-6H-pyrimido[5,4-b][1,4]oxazin-4-yl)amino)-8-azabicyclo[3.2.1]octan-8-yl)acetyl)piperazine-1-carboxylate] |  |
| 66.1% | 0.12 µM |  | CC(C)OC(=O)N1CCC(Nc2ncnc3c2OCCN3c2ccc(C#N)cc2F)CC1 [Compound 22, Isopropyl 4-((8-(4-cyano-2-fluorophenyl)-7,8-dihydro-6H-pyrimido[5,4-b][1,4]oxazin-4-yl)amino)piperidine-1-carboxylate] |  |
| 70.7% | 0.044 µM |  | CCc1cnc(N2CCC(Nc3ncnc4c3OCCN4c3ccc(C#N)cc3F)CC2)nc1 [Compound 23, 4-(4-((1-(5-Ethylpyrimidin-2-yl)piperidin-4-yl)amino)-6,7-dihydro-8H-pyrimido[5,4-b][1,4]oxazin-8-yl)-3-fluorobenzonitrile] |  |
| 62.7% | 0.04 µM |  | N#Cc1ccc(N2CCOc3c(NC4CCN(c5ncc(Cl)cn5)CC4)ncnc32)c(F)c1 [Compound 24, 4-(4-((1-(5-Chloropyrimidin-2-yl)piperidin-4-yl)amino)-6,7-dihydro-8H-pyrimido[5,4-b][1,4]oxazin-8-yl)-3-fluorobenzonitrile] |  |
| 100% | 0.09 µM |  | CC(C)(C)OC(=O)N1CCN(C(=O)CN2CCC(Nc3ncnc4c3OCCN4c3ccc(C#N)cc3F)CC2)CC1 [Compound 25, tert-Butyl 4-(2-(4-((8-(4-cyano-2-fluorophenyl)-7,8-dihydro-6H-pyrimido[5,4-b][1,4]oxazin-4-yl)amino)piperidin-1-yl)acetyl)piperazine-1-carboxylate] |  |
